# Experimental data taken from BigSolDB 2.1.
smiles,measurement,setting,value
O=C[C@H](O)[C@H](O)[C@H](O)CO,solubility (mole fraction),"in acetone, 283.15 K",0.00234
same,solubility (mole fraction),"in acetone, 293.15 K",0.00302
same,solubility (mole fraction),"in acetone, 303.15 K",0.00509
same,solubility (mole fraction),"in acetone, 313.15 K",0.0077
same,solubility (mole fraction),"in acetone, 323.15 K",0.0118
same,solubility (mole fraction),"in acetonitrile, 283.15 K",0.00109
same,solubility (mole fraction),"in acetonitrile, 293.15 K",0.00144
same,solubility (mole fraction),"in acetonitrile, 303.15 K",0.0022
same,solubility (mole fraction),"in acetonitrile, 313.15 K",0.00357
same,solubility (mole fraction),"in acetonitrile, 323.15 K",0.00626
same,solubility (mole fraction),"in dichloromethane, 283.15 K",0.000102
same,solubility (mole fraction),"in dichloromethane, 288.15 K",0.000257
same,solubility (mole fraction),"in dichloromethane, 293.15 K",0.000367
same,solubility (mole fraction),"in dichloromethane, 298.15 K",0.000402
same,solubility (mole fraction),"in dichloromethane, 303.15 K",0.000529
same,solubility (mole fraction),"in ethanol, 283.15 K",0.00798
same,solubility (mole fraction),"in ethanol, 293.15 K",0.0121
same,solubility (mole fraction),"in ethanol, 303.15 K",0.0213
same,solubility (mole fraction),"in ethanol, 313.15 K",0.0394
same,solubility (mole fraction),"in ethanol, 323.15 K",0.0675
same,solubility (mole fraction),"in ethyl acetate, 283.15 K",0.000876
same,solubility (mole fraction),"in ethyl acetate, 293.15 K",0.00107
same,solubility (mole fraction),"in ethyl acetate, 303.15 K",0.00162
same,solubility (mole fraction),"in ethyl acetate, 313.15 K",0.00257
same,solubility (mole fraction),"in ethyl acetate, 323.15 K",0.0036
same,solubility (mole fraction),"in isobutanol, 283.15 K",0.00334
same,solubility (mole fraction),"in isobutanol, 293.15 K",0.00421
same,solubility (mole fraction),"in isobutanol, 303.15 K",0.0063
same,solubility (mole fraction),"in isobutanol, 313.15 K",0.0102
same,solubility (mole fraction),"in isobutanol, 323.15 K",0.0156
same,solubility (mole fraction),"in isopropanol, 283.15 K",0.00457
same,solubility (mole fraction),"in isopropanol, 293.15 K",0.00703
same,solubility (mole fraction),"in isopropanol, 303.15 K",0.0117
same,solubility (mole fraction),"in isopropanol, 313.15 K",0.021
same,solubility (mole fraction),"in isopropanol, 323.15 K",0.0426
same,solubility (mole fraction),"in methanol, 283.15 K",0.0313
same,solubility (mole fraction),"in methanol, 288.15 K",0.0457
same,solubility (mole fraction),"in methanol, 293.15 K",0.0587
same,solubility (mole fraction),"in methanol, 298.15 K",0.0771
same,solubility (mole fraction),"in methanol, 303.15 K",0.108
same,solubility (mole fraction),"in n-butanol, 283.15 K",0.00388
same,solubility (mole fraction),"in n-butanol, 293.15 K",0.00485
same,solubility (mole fraction),"in n-butanol, 303.15 K",0.00814
same,solubility (mole fraction),"in n-butanol, 313.15 K",0.0124
same,solubility (mole fraction),"in n-butanol, 323.15 K",0.0201
same,solubility (mole fraction),"in n-hexane, 283.15 K",3.77e-05
same,solubility (mole fraction),"in n-hexane, 293.15 K",7.32e-05
same,solubility (mole fraction),"in n-hexane, 303.15 K",0.000101
same,solubility (mole fraction),"in n-hexane, 313.15 K",0.000174
same,solubility (mole fraction),"in n-hexane, 323.15 K",0.000205
same,solubility (mole fraction),"in n-propanol, 283.15 K",0.00515
same,solubility (mole fraction),"in n-propanol, 293.15 K",0.00691
same,solubility (mole fraction),"in n-propanol, 303.15 K",0.0112
same,solubility (mole fraction),"in n-propanol, 313.15 K",0.0179
same,solubility (mole fraction),"in n-propanol, 323.15 K",0.0305
same,solubility (mole fraction),"in sec-butanol, 283.15 K",0.00484
same,solubility (mole fraction),"in sec-butanol, 293.15 K",0.00567
same,solubility (mole fraction),"in sec-butanol, 303.15 K",0.00894
same,solubility (mole fraction),"in sec-butanol, 313.15 K",0.0152
same,solubility (mole fraction),"in sec-butanol, 323.15 K",0.0242
